Test system: reverse cholesterol transport (RCT)
Assay: Global RCT parameter in rats: Ra cholesterol combined with recovery of administered labeled cholesterol in fecal neutral sterols or bile acids
Type: in vivo
Settings: for "global parameter" of RCT into neutral sterols (product of Ra cholesterol and excretion of plasma cholesterol): rats fed the agent for 7 days
Procedure: A refinement of the approach outlined in Example 1, involves calculating the Ra of plasma cholesterol and combining that measurement with the fractional excretion of administered cholesterol as described in Example 4. The recovery of plasma cholesterol in stool is defined as the proportion of administered labeled cholesterol that was excreted in fecal neutral sterols. It is expressed as % label recovered from day 1-4 following infusion. It is calculated from: % ^13C enrichment in fecal neutral sterols, the mg/day excretion of neutral sterols and divided by total mg 1 ^13C cholesterol administered. [formula] The same calculation is made for the recovery of plasma cholesterol into bile acids excreted in stool. Rats were treated with common and investigational cholesterol lowering agents, cholesterolamine, ezetimibe, LXR agonist (TO-901317). The Ra of cholesterol is calculated as described, the recovery of administered cholesterol in fecal sterol or bile acids are calculated as described.

| SMILES | excretion of plasma cholesterol into neutral sterols and the global parameter of RCT (rats) | "global parameter" of RCT into neutral sterols (product of Ra cholesterol and excretion of plasma cholesterol) | plasma flux to neutral sterols (effect on RCT) (rats, FIG. 12) |
| --- | --- | --- | --- |
| O=S(=O)(c1ccccc1)N(CC(F)(F)F)c1ccc(C(O)(C(F)(F)F)C(F)(F)F)cc1 [TO-901317] | observed increase in RCT | significant increase observed |  |
| O=C1[C@H](CC[C@H](O)c2ccc(F)cc2)[C@@H](c2ccc(O)cc2)N1c1ccc(F)cc1 [ezetimibe] |  | significant increase observed | increase in plasma flux to neutral sterols |

Reference: patent publication US20060251576A1, “Methods for measuring cholesterol metabolism and transport” (The Regents of the University of California, priority 2005, published 2006)
